{"source": "ChEMBL document CHEMBL1144690", "about": "“Isolation of cytotoxic metabolites from targeted peruvian amazonian medicinal plants” (2008)", "test_system": "Mycobacterium tuberculosis", "experiment": "Antimicrobial activity against multidrug resistant Mycobacterium tuberculosis", "assay_type": "functional", "data": [{"smiles": "C/C=C1/CN2CC[C@@]34c5ccccc5N5/C=C6/[C@H]7C[C@@H]8N(CC[C@@]89c8ccccc8N(/C=C(/[C@H]1C[C@H]23)[C@H]54)[C@@H]69)C/C7=C/C", "note": "[BISNORDIHYDROTOXIFERINE]", "values": [{"measurement": "MIC", "result": 6.25, "unit": "µg/mL"}]}]}
